Measurements from patent publication US11478526B2, “Methods of reducing neuroinflammation or toxicity induced by amyloid beta (abeta) using glucocorticoid induced leucine zipper (GILZ) analog peptides” (INDIANA UNIVERSITY RESEARCH AND TECHNOLOGY CORPORATION, priority 2016, dated 2022).

System: Aβ1-42 exposed HFB cells
Test: Cytokines in culture medium of Aβ1-42 exposed HFB
Format: cell-based, human
Conditions: 50 μM peptide
Method: Fetal brain materials (10-20 g) were shipped overnight in chilled Hibernate-E medium (Invitrogen) supplemented with B27 (Invitrogen), GlutaMAX (Invitrogen) and antibiotic-antimycotic solution (Cellgro). HFB were prepared and cultured as described. Briefly, cells were cultured in Neurobasal medium (Invitrogen) without phenol red supplemented with 1×B27, […] GlutaMAX, 1×antibiotic cocktail, 5 ng/mL recombinant fibroblast growth factor 2 (bFGF) (Invitrogen), and 2 μL/mL Normocin (InVivoGen, San Diego, Calif., USA). Cells were counted and seeded onto poly-D-lysine (Sigma-Aldrich) coated 24-well plates (Corning, Lowell, Mass., USA) at 1.5×10^5 cells per well and maintained at 37° C. in a 5% CO2 incubator. Half media changes were performed every 4th day of culture and morphology was monitored via phase contrast microscopy. Culture medium was removed from cells on day 17 (DIV17) and replaced with Neurobasal medium with B27. Appropriate wells were then added vehicle, or carrier peptide or individual GA or control peptide (at 50 μM) for 30 min followed by exposure to Aβ1-42 at a final concentration of 10 μM/well and incubated for 4 hours or 48 hours. Cells and conditioned media were harvested and stored for further analysis. Relative ATP concentration was measured using the CTG kit (Promega). Data is presented as ΔRLU=RLU of Aβ1-42 exposed cells-RLU unexposed cells. Conditioned media collected were assessed for specific cytokines using the OptEIA kits (BD Biosciences). Nuclear and cytoplasmic fractions were extracted using the CelLytic™ NuCLEAR™ Extraction Kit (Sigma) following manufacturer's protocol. Five microgram of nuclear extracts was incubated in a 96-well plate coated with oligonucleotides containing the NF-κβ consensus nucleotide sequence (5′-[…]-3′) (SEQ ID NO: 30). The activated NF-κβ bound to DNA was detected by anti-p65 antibody followed by a peroxidase coupled secondary antibody and substrate using the TransAM kit protocol (Active Motif). Nuclear extracts of Raji cells was used as the positive control.
Select PGA protects against Aβ1-42 induced toxicity, prevents p65 activation and cytokine response in human fetal brain (HFB) cells. […] Viability in terms of relative luminescent Units (RLU) was quantified using a Glowmax luminometer (Promega, Wis.). Data are presented as ARLU=RLU of Aβ1-42 exposed cells-RLU of unexposed cells. […] The mean RLU of vehicle treated HFB varied between 7352.75+/−1265.2 and 16157.5+/−4950. […] The culture supernatants were assessed for cytokines by ELISA (R&D Systems, Minn.). […] Primary HFB cultured similarly and harvested at the end of 4 hours was assessed for nuclear p65 using TransAM kit for NF-κB p65 (Active Motif, Calif.).

Substance	relative concentration of IL-6 in culture medium	relative concentration of IL-10 in culture medium
Ac-EPAPLAPYG-NH2 [GA-1]	significantly lower	significantly lower
Ac-EPAPESPQV-NH2 [GA-2]	significantly lower	significantly lower
